Results from patent US9113629B2, “4-amino-6-(4-substituted-phenyl)-picolinates and 6-amino-2-(4-substituted-phenyl)-pyrimidine-4-carboxylates and their use as herbicides” (DOW AGROSCIENCES LLC, priority 2013, dated 2015).
Where two headings read alike, the source gives them in different places.

Tests used:
[1] = test system: Key Grass and Sedge Weeds as well as Grass Crops; experiment: Post-emergent Test II herbicidal activity (Table 6); type: in vivo; details: post-emergence, 336 h; for pest or weed control at 70 g/ha: 70 g ai/ha; for pest or weed control at 140 g/ha: 140 g ai/ha
Procedure, shortened: (§1)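 Foliar application at 187 L/ha to greenhouse-grown seedlings (first or second true leaf); subirrigation thereafter. Visual 0–100% injury at 14 d relative to untreated plants.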

[2] = test system: Key Broadleaf Weed and Crop Species; experiment: Post-emergent Test II herbicidal activity (Table 5); type: in vivo; details: post-emergence, 336 h, 14 days after application; for pest or weed control at 70 g/ha: application rate 70 g ai/ha; for pest or weed control at 140 g/ha: application rate 140 g ai/ha
Procedure, shortened: as §1

[3] = CYPES: yellow nutsedge (Cyperus esculentus), read-out: Visual Growth Reduction (%) 14 Days After Application, CYPES
[4] = DIGSA: crabgrass (Digitaria sanguinalis), read-out: Visual Growth Reduction (%) 14 Days After Application, DIGSA
[5] = ECHCG: barnyardgrass (Echinochloa crus-galli), read-out: Visual Growth Reduction (%) 14 Days After Application, ECHCG
[6] = ORYSA: rice (Oryza sativa), crop, read-out: Visual Growth Reduction (%) 14 Days After Application, ORYSA
[7] = SETFA: giant foxtail (Setaria faberi), read-out: Visual Growth Reduction (%) 14 Days After Application, SETFA
[8] = SORVU: grain sorghum (Sorghum vulgare), read-out: Visual Growth Reduction (%) 14 Days After Application, SORVU
[9] = TRZSS (wheat, Triticum aestivum), crop, read-out: Visual Growth Reduction (%) 14 Days After Application, TRZSS
[10] = ZEAMX: maize, corn (Zea mays), crop, read-out: Visual Growth Reduction (%) 14 Days After Application, ZEAMX
[11] = ABUTH: velvetleaf (Abutilon theophrasti), read-out: Visual Growth Reduction (%) 14 Days After Application, ABUTH
[12] = AMARE: redroot pigweed (Amaranthus retroflexus), read-out: Visual Growth Reduction (%) 14 Days After Application, AMARE
[13] = BRSNN: oilseed-rape, canola (Brassica napus), read-out: Visual Growth Reduction (%) 14 Days After Application, BRSNN
[14] = CHEAL: lambsquarters (Chenopodium album), read-out: Visual Growth Reduction (%) 14 Days After Application, CHEAL
[15] = EPHHL: wild poinsettia (Euphorbia heterophylla), read-out: Visual Growth Reduction (%) 14 Days After Application, EPHHL
[16] = HELAN: sunflower (Helianthus annuus), read-out: Visual Growth Reduction (%) 14 Days After Application, HELAN
[17] = VIOTR: wild pansy (Viola tricolor), read-out: Visual Growth Reduction (%) 14 Days After Application, VIOTR

Nc1c(F)c(-c2ccc([N+](=O)[O-])cc2)nc(C(=O)O)c1Cl [Compound 31, 4-amino-3-chloro-5-fluoro-6-(4-nitrophenyl)picolinic acid]
melting point: 180 to 181 °C | pest or weed control at 70 g/ha [1, 3]: 0 to 29% | pest or weed control at 140 g/ha [1, 3]: 0 to 29% | pest or weed control at 70 g/ha [1, 4]: 60 to 74% | pest or weed control at 140 g/ha [1, 4]: 60 to 74% | pest or weed control at 70 g/ha [1, 5]: 75 to 84% | pest or weed control at 140 g/ha [1, 5]: 85 to 94% | pest or weed control at 70 g/ha [1, 6]: 0 to 29% | pest or weed control at 140 g/ha [1, 6]: 0 to 29% | pest or weed control at 70 g/ha [1, 7]: 0 to 29% | pest or weed control at 140 g/ha [1, 7]: 0 to 29% | pest or weed control at 70 g/ha [1, 8]: 0 to 29% | pest or weed control at 140 g/ha [1, 8]: 0 to 29% | pest or weed control at 70 g/ha [1, 9]: 0 to 29% | pest or weed control at 140 g/ha [1, 9]: 0 to 29% | pest or weed control at 70 g/ha [1, 10]: 0 to 29% | pest or weed control at 140 g/ha [1, 10]: 0 to 29% | pest or weed control at 70 g/ha [2, 11]: 0 to 29% | pest or weed control at 140 g/ha [2, 11]: 0 to 29% | pest or weed control at 70 g/ha [2, 12]: 95 to 100% | pest or weed control at 140 g/ha [2, 12]: 95 to 100% | pest or weed control at 70 g/ha [2, 13]: 30 to 44% | pest or weed control at 140 g/ha [2, 13]: 45 to 59% | pest or weed control at 70 g/ha [2, 14]: 60 to 74% | pest or weed control at 140 g/ha [2, 14]: 85 to 94% | pest or weed control at 70 g/ha [2, 15]: 0 to 29% | pest or weed control at 140 g/ha [2, 15]: 0 to 29% | pest or weed control at 70 g/ha [2, 16]: 95 to 100% | pest or weed control at 140 g/ha [2, 16]: 95 to 100% | pest or weed control at 70 g/ha [2, 17]: 0 to 29% | pest or weed control at 140 g/ha [2, 17]: 0 to 29%
